Reference: US9788545B2, “Synergistic pesticidal compositions and related methods” (Dow AgroSciences LLC, priority 2013, dated 2017)

Key:
Type in all cases: in vivo
[1] = system: South American brown stink bug, Euschistus heros; assay: Bean-piece dip bioassay on third-instar nymphs of South American brown stink bug (Example 6); settings: Compound I alone, dose rate 0.04 weight %, treated bean pieces
Text: (§1) The method described in Colby S. R., “Calculating Synergistic and Antagonistic Responses of Herbicide Combinations,” Weeds, 1967, 15, 20-22 was used to determine an existence of synergic effect between the sulfoximine-based nAChR agonist compound and the pesticide (I), (II) or any agriculturally acceptable salt thereof in the formulated pesticidal composition. In this method, the percent insect control of the formulated pesticidal composition as observed in the study was compared to the “expected” percent control (E) as calculated by equation (1) (hereinafter “Colby's equation”) below: […]
The active compounds were formulated in a 10% acetone solution with 0.025% non-ionic surfactant, TWEEN® 20. Bioassays were performed for each different active solution. Bean pieces (about one inch-long) were used for the tests. Four bean pieces were placed in each tested active solution and left there for 10 minutes. Bean pieces were taken out of the active solution, and each piece was placed in a well in a 32-well tray and allowed to air dry. Three third-instar nymphs of South American brown stink bug, Euschistus heros, were infested into each well.

[2] = system: Western flower thrips, Frankliniella occidentalis; assay: Cotton leaf punch dip bioassay on larval stage 2 nymphs of Western flower thrips (Examples 7A-7D); settings: Compound I alone, dose rate 0.04 weight %, treated cotton leaf punches
Text: as §1
The active compounds were formulated in a 10% acetone solution with 0.025% non-ionic surfactant, TWEEN® 20. Cotton leaf punches were used for bioassays. Two cotton leaf punches were placed in each solution and left there for 10 minutes. Leaves were taken out of the solution, placed on a piece of filter paper in separated Petri dishes, and air dried. Each leaf disc was considered a repetition. Five larval stage 2 nymphs of Western flower thrips, Frankliniella occidentalis, were infested per repetition.

[3] = system: brown stink bug, Euschistus heros; assay: Diet-treatment bioassay on second-instar nymphs of brown stink bug (Examples 5A, 5B); settings: Compound II alone, dose rate 0.04 weight %, applied to diet
Text: as §1
The percent control of the pesticidal composition against brown stink bug, Euschistus heros, was determined as the “Observed” action, and compared to those obtained by using about 0.04 weight % of Compound II, and using about 0.000156 weight % of sulfoxaflor alone. The “Colby's Expected Action” was calculated using Colby's equation as discussed previously.

Row | SMILES | % Control Four Days After Treatment [1] [%] | % Control Three Days After Treatment [2] [%] | % Control Six Days After Treatment [3]
1 | CCN(C(=O)CCSCCC(F)(F)F)c1cn(-c2cccnc2)nc1Cl [Compound I, N-(3-chloro-1-(pyridin-3-yl)-1H-pyrazol-4-yl)-N-ethyl-3-((3,3,3-trifluoropropyl)thio)propanamide] | 0 | 0 | –
2 | CCN(C(=O)CC[S+]([O-])CCC(F)(F)F)c1cn(-c2cccnc2)nc1Cl (stereo not drawn) [Compound II, N-(3-chloro-1-(pyridin-3-yl)-1H-pyrazol-4-yl)-N-ethyl-3-((3,3,3-trifluoropropyl)sulfinyl)propanamide] | – | – | no control
